Laboratory results as given in patent EP2468718A1, “Cabanillasin, a new antifungal compound, produced by entomopathogenic xenorhabdus cabanillasii” (Nosopharm, priority 2010, dated 2012).
≈ marks a conversion by molar mass, not a printed value. Like-named read-outs stand apart in the source and are kept apart here.

Key:
[1] = tested on: Candida krusei ATCC 6258; experiment: Antifungal susceptibility testing, NCCLS M27-A2 broth microdilution (yeasts); format: cell-based; conditions: Pichia kudriavzevii, ATCC6258; for inhibition at 0.09 µg/mL / inhibition at 0.19 µg/mL / inhibition at 0.39 µg/mL / inhibition at 0.78 µg/mL / inhibition at 1.56 µg/mL / inhibition at 3.12 µg/mL / inhibition at 6.25 µg/mL / inhibition at 12.5 µg/mL / inhibition at 25 µg/mL / inhibition at 50 µg/mL: read-out: % of growth inhibition
Procedure: (§1) Cabanillasin activity was tested against different fungal human pathogens: ascomycetes yeasts (Candida albicans ATCC 90029, Candida Glabrata ATCC 90030, Candida krusei ATCC 6258 and Candida lusitaniae CBS 6936), basidiomycetes yeasts (Cryptococcus neoformans clinical strain), ascomycetes filamentous fungi (Aspergilus fumigatus clinical strain, Fusarium oxysporum clinical strain) and zygomycetes filamentous fungi (Rhizopus oryzae environemental strain) by the M38-A microdilution method with RPMI 1640 medium (RPMI 1640, MOPS 160 mM, glucose 18 g/L, pH 7) as recommended in the […]. The NCCLS M27-A2 broth microdilution method (NCCLS) was used when yeasts were tested.
(§2) Yeasts and filamentous inoculi were prepared on YPD medium (yeast extract 10 g/L, peptone 10 g/L and glucose 20 g/L) and Malt medium (malt extract 20 g/L) respectively. The densities of inoculi were adjusted by dilution in RPMI 1640 broth to a value ranged from 5.10^2 to 5.10^3 CFU/mL for yeasts isolates and 5.10^3 to 5.10^4 CFU/mL for filamentous fungi. Microdilution trays (96 U-bottom shaped) containing 190 µL fungal inoculum were added with 10 µL Cabanillasin solution (final concentration ranging from 50 to 0.098 mg/L for all fungi). After inoculation of the trays, all microdilution trays were incubated at 35°C in ambient air. The culture absorbance was measured at 600 nm, 24 h and 48 h after the beginning of the experiments for the yeasts and 48 h and 72 h after the beginning of the experiments for filamentous fungi and Cryptococcus neoformans. The activity results correspond to a percentage of growth inhibition ((1-Abs600 nm culture with Cabanillasin)/ Abs600 nm culture without Cabanillasin) x 100.
(§3) The IC50 value is the concentration at which inhibition of growth is equal to 50%. MICs for Candida species were determined at 24 h and 48 h and corresponded to 100% of growth inhibition. Amphotericin B was provided as standard (final concentration ranging from 16 to 0.03 mg/L for all fungi). Experiments were done in duplicate.

[2] = tested on: Candida lusitaniae CBS 6936; experiment: as above; format: cell-based; conditions: Clavispora lusitaniae, CBS6936; for inhibition at 0.09 µg/mL / inhibition at 0.19 µg/mL / inhibition at 0.39 µg/mL / inhibition at 0.78 µg/mL / inhibition at 1.56 µg/mL / inhibition at 3.12 µg/mL / inhibition at 6.25 µg/mL / inhibition at 12.5 µg/mL / inhibition at 25 µg/mL / inhibition at 50 µg/mL: read-out: % of growth inhibition
Procedure: as §1, §2, §3

[3] = tested on: Aspergilus fumigatus clinical strain; experiment: Antifungal susceptibility testing, M38-A microdilution method (filamentous fungi); format: cell-based, Aspergillus fumigatus; conditions: for inhibition at 0.09 µg/mL / inhibition at 0.19 µg/mL / inhibition at 0.39 µg/mL / inhibition at 0.78 µg/mL / inhibition at 1.56 µg/mL / inhibition at 3.12 µg/mL / inhibition at 6.25 µg/mL / inhibition at 12.5 µg/mL / inhibition at 25 µg/mL / inhibition at 50 µg/mL: Aspergillus fumigatus, read-out: % of growth inhibition
Procedure: as §1, §2, §3

[4] = tested on: Fusarium oxysporum clinical strain; experiment: as above; format: cell-based; conditions: for inhibition at 0.09 µg/mL / inhibition at 0.19 µg/mL / inhibition at 0.39 µg/mL / inhibition at 0.78 µg/mL / inhibition at 1.56 µg/mL / inhibition at 3.12 µg/mL / inhibition at 6.25 µg/mL / inhibition at 12.5 µg/mL / inhibition at 25 µg/mL / inhibition at 50 µg/mL: read-out: % of growth inhibition
Procedure: as §1, §2, §3

[5] = tested on: Rhizopus oryzae environemental strain; experiment: as above; format: cell-based; conditions: for inhibition at 0.09 µg/mL / inhibition at 0.19 µg/mL / inhibition at 0.39 µg/mL / inhibition at 0.78 µg/mL / inhibition at 1.56 µg/mL / inhibition at 3.12 µg/mL / inhibition at 6.25 µg/mL / inhibition at 12.5 µg/mL / inhibition at 25 µg/mL / inhibition at 50 µg/mL: Rhizopus arrhizus, read-out: % of growth inhibition
Procedure: as §1, §2, §3

[6] = 24 h of incubation, 100% of growth inhibition

## CC(=O)NC(=N)NCCCCNC(=N)NCCCCNC(=N)NCCCCNC(=N)NCCCCN [Cabanillasin]
[1]; 24 h incubation
  inhibition at 0.09 µg/mL: 0%
  inhibition at 0.19 µg/mL: 0%
  inhibition at 0.39 µg/mL: 0%
  inhibition at 0.78 µg/mL: 0%
  inhibition at 1.56 µg/mL: 0%
  inhibition at 3.12 µg/mL: 9%
  inhibition at 6.25 µg/mL: 79%
  inhibition at 12.5 µg/mL: 91%
  inhibition at 25 µg/mL: 100%
  inhibition at 50 µg/mL: 100%
[1]; 48 h incubation
  inhibition at 0.09 µg/mL: 0%
  inhibition at 0.19 µg/mL: 0%
  inhibition at 0.39 µg/mL: 0%
  inhibition at 0.78 µg/mL: 0%
  inhibition at 1.56 µg/mL: 0%
  inhibition at 3.12 µg/mL: 0%
  inhibition at 6.25 µg/mL: 31.2%
  inhibition at 12.5 µg/mL: 83%
  inhibition at 25 µg/mL: 88.5%
  inhibition at 50 µg/mL: 92.9%
[1]; 24 h of incubation
  IC50: 6.25 µg/mL (≈ 12.2 µM)
[1]; [6]
  MIC: 25 µg/mL (≈ 48.9 µM)
[2]; 24 h incubation
  inhibition at 0.09 µg/mL: 11.7%
  inhibition at 0.19 µg/mL: 14.5%
  inhibition at 0.39 µg/mL: 11.5%
  inhibition at 0.78 µg/mL: 20.2%
  inhibition at 1.56 µg/mL: 64.8%
  inhibition at 3.12 µg/mL: 86.7%
  inhibition at 6.25 µg/mL: 94.7%
  inhibition at 12.5 µg/mL: 97.7%
  inhibition at 25 µg/mL: 100%
  inhibition at 50 µg/mL: 100%
[2]; 48 h incubation
  inhibition at 0.09 µg/mL: 0%
  inhibition at 0.19 µg/mL: 0%
  inhibition at 0.39 µg/mL: 0%
  inhibition at 0.78 µg/mL: 0%
  inhibition at 1.56 µg/mL: 0%
  inhibition at 3.12 µg/mL: 57%
  inhibition at 6.25 µg/mL: 74.6%
  inhibition at 12.5 µg/mL: 86.1%
  inhibition at 25 µg/mL: 95.9%
  inhibition at 50 µg/mL: 100%
[2]; 24 h of incubation
  IC50: 1.56 µg/mL (≈ 3.05 µM)
[2]; [6]
  MIC: 25 µg/mL (≈ 48.9 µM)
[3]; 48 h incubation
  inhibition at 0.09 µg/mL: 0%
  inhibition at 0.19 µg/mL: 0%
  inhibition at 0.39 µg/mL: 0%
  inhibition at 0.78 µg/mL: 0%
  inhibition at 1.56 µg/mL: 0%
  inhibition at 3.12 µg/mL: 0%
  inhibition at 6.25 µg/mL: 0%
  inhibition at 12.5 µg/mL: 0%
  inhibition at 25 µg/mL: 0%
  inhibition at 50 µg/mL: 65.2%
[3]; 72 h incubation
  inhibition at 0.09 µg/mL: 0%
  inhibition at 0.19 µg/mL: 0%
  inhibition at 0.39 µg/mL: 0%
  inhibition at 0.78 µg/mL: 0%
  inhibition at 1.56 µg/mL: 0%
  inhibition at 3.12 µg/mL: 0%
  inhibition at 6.25 µg/mL: 0%
  inhibition at 12.5 µg/mL: 0%
  inhibition at 25 µg/mL: 0%
  inhibition at 50 µg/mL: 0%
[3]; at 48h
  activity: weak activity
[3]; at 72 h
  activity: no activity
[4]; 48 h incubation
  inhibition at 0.09 µg/mL: 0%
  inhibition at 0.19 µg/mL: 0%
  inhibition at 0.39 µg/mL: 0%
  inhibition at 0.78 µg/mL: 0%
  inhibition at 1.56 µg/mL: 0%
  inhibition at 3.12 µg/mL: 32.1%
  inhibition at 6.25 µg/mL: 68.6%
  inhibition at 12.5 µg/mL: 71.6%
  inhibition at 25 µg/mL: 66.6%
  inhibition at 50 µg/mL: 80.2%
[4]; 72 h incubation
  inhibition at 0.09 µg/mL: 0%
  inhibition at 0.19 µg/mL: 0%
  inhibition at 0.39 µg/mL: 0%
  inhibition at 0.78 µg/mL: 0%
  inhibition at 1.56 µg/mL: 0%
  inhibition at 3.12 µg/mL: 0%
  inhibition at 6.25 µg/mL: 48.6%
  inhibition at 12.5 µg/mL: 56.4%
  inhibition at 25 µg/mL: 72.5%
  inhibition at 50 µg/mL: 79.8%
[4]; incubation time not stated
  IC50: 6.25 µg/mL (≈ 12.2 µM)
[5]; 48 h incubation
  inhibition at 0.09 µg/mL: 0%
  inhibition at 0.19 µg/mL: 0%
  inhibition at 0.39 µg/mL: 0%
  inhibition at 0.78 µg/mL: 0%
  inhibition at 1.56 µg/mL: 0%
  inhibition at 3.12 µg/mL: 0%
  inhibition at 6.25 µg/mL: 0%
  inhibition at 12.5 µg/mL: 0%
  inhibition at 25 µg/mL: 0%
  inhibition at 50 µg/mL: 40.7%
[5]; 72 h incubation
  inhibition at 0.09 µg/mL: 0%
  inhibition at 0.19 µg/mL: 0%
  inhibition at 0.39 µg/mL: 0%
  inhibition at 0.78 µg/mL: 0%
  inhibition at 1.56 µg/mL: 0%
  inhibition at 3.12 µg/mL: 0%
  inhibition at 6.25 µg/mL: 0%
  inhibition at 12.5 µg/mL: 0%
  inhibition at 25 µg/mL: 0%
  inhibition at 50 µg/mL: 0%
[5]; at 48h
  activity: weak activity
[5]; at 72 h
  activity: no activity
